How the values were obtained:
WT mice = assay: Action of jumping off platform; type: in vivo; conditions: 10 mg/kg i.p., about 20 cm high platform, 7 minutes, FIG. 5
Procedure: Wild mice, EP1 or EP3 receptor-deficient mice, or WT mice to which 10 mg/kg of EP1 antagonist (the same as experiment example 1 was used.) was intraperitoneally administered put on about 20 cm high platform (beaker), and the presence of the action of jumping off was observed.

C57BL/6 mice = assay: Decrease of spontaneous locomotor activity by LPS induction; type: in vivo; conditions: wild mice; LPS 0.1 mg/kg i.p.; 0.1% (W/W) EP1 antagonist mixed with food; 12 hours, 8 p.m. to 8 a.m.; FIG. 4
Procedure: 0.1 mg/kg of LPS is intraperitoneally administered to C57BL/6 mice, they are put in acrylic cage (30×45×35 cm (height), and the momentum for 12 hours from the 8 p.m. to 8 a.m. of next morning was measured with mouse action meter, Infrared photo beam counter (Neuroscience Co., Ltd., Tokyo, Japan). 0.1% (W/W) of EP1 antagonist (the same as experiment example 1 was used) mixed with food was given. Similarly, the difference of the momentum by administering LPS were compared by using wild mice (WT) and EP1 receptor-deficient mice.

wild mice = assay: Social behaviors on cohabiting with young male mice (smelling action); type: in vivo; conditions: wild mice cohabiting with young male mice (5 weeks of age)
From the text: (§1) The action admitted when wild mice (WT) or EP1 receptor-deficient mice cohabit with young male mice (5 weeks of ages) was observed.

ACTH in plasma = assay: ACTH production by LPS induction; type: in vivo, C57BL/6 strain mice; conditions: wild type mice; LPS 0.1 mg/kg i.p.; blood 60 minutes after LPS; EP1 antagonist given 1 hour before LPS; FIG. 2
Procedure: 0.1 mg/kg of LPS (lipopolysaccharide) as an infectious stress was intraperitoneally administered to C57BL/6 strain mice. The blood be gathered at 60 minutes later after administering LPS, the induced stress reaction, that is, activation of hypothalamus-pituitary-adrenal system were measured as a marker on ACTH in plasma. ACTH was measured with ACTH IRMA kit (Mitsubishi Yuka Medical Co., Tokyo, Japan). (4-[2-(N-isobutyl-2-furanylsulfonylamino)-5-trifluoromethylphenoxymethyl]cinna mic acid (the compound which had been described to example 18(94) in WO98/27053, was used.), which is EP1 antagonist, was administered 1 hour ago before administering LPS.

[1] = test system: EP1 receptor-deficient mice; assay: Aggressive behavior after administering haloperidol; type: in vivo; conditions: EP1 receptor-deficient mice given haloperidol
Procedure: After two male mice (wild mice (WT) or EP1 receptor-deficient mice) were put in 3 L of glass container and stimulated by the electroshock (1 H, 200 m seconds, 0.3 mA for 3 minutes), these aggressive behaviors were recorded to the video. The time up to the first aggressive behavior (latency; second) and the attack frequency, and total attack time was compared.
as §1
As a result of experiment similar to experiment example 6 by administering haloperidol to EP1 receptor-deficient mice, it was confirmed that the time up to the first attack elongates, the attack frequency decreases, and the total of attack time shortens.

[2] = test system: EP1 receptor-deficient mice; assay: Spontaneous locomotor activity after administering haloperidol; type: in vivo; conditions: EP1 receptor-deficient mice given haloperidol
Procedure: Furthermore, it was also confirmed that the spontaneous locomotor activity decreased when haloperidol was administered to EP1 receptor-deficient mice.

Row | SMILES | mice jumped off the platform (WT mice) | decrease of the spontaneous locomotor activity induced by LPS (C57BL/6 mice) | time of the smelling action (wild mice) | amount of ACTH production by LPS-induction (ACTH in plasma) | attack frequency [1] | time up to the first attack [1] | total of attack time [1] | spontaneous locomotor activity [2]
1 | CC(C)CN(c1ccc(C(F)(F)F)cc1OCc1ccc(C=CC(=O)O)cc1)S(=O)(=O)c1ccco1 [EP1 antagonist, 4-[2-(N-isobutyl-2-furanylsulfonylamino)-5-trifluoromethylphenoxymethyl]cinna mic acid] | All mice in the EP1 antagonist administrated group jumped off the platform 7 minutes later | has decreased | shortened | significantly decreases | – | – | – | –
2 | O=C(CCCN1CCC(O)(c2ccc(Cl)cc2)CC1)c1ccc(F)cc1 [haloperidol] | – | – | – | – | decreases | elongates | shortens | decreased

Reference: patent publication US20060058394A1, “Medicine of post-traumatic stress disorder” (KYOTO UNIVERSITY, priority 2001, published 2006)
